Patent publication US7745465B2, “Method of enhancing cellular production of molecular chaperone, hydroxylamine derivatives useful for enhancing the chaperone production and the preparation thereof” (CytRx Corporation, priority 1995, dated 2010)

Assays:
[1] = test system: Hsp72; experiment: Heat stress induced hsp72 expression in rat testicular explant; format: cell-based; details: 10^−5 M, 15 min. before 43° C. 30 min.
Experimental: Testis of CFY rats weighing of 200 g were removed in sterile conditions and the released testicular tubuli were suspended in 10% fetal bovine serum containing MEM culture medium in that way that five ml suspension contained 50-100 mg tissue. The explants were incubated in 5% CO2 containing humidified air at 37° C. for one hour, then the cultures were treated with 10^−5 M concentration of the tested compounds. After a further incubation for 15 min. at 37° C., explants were exposed to heat shock at 43° C. for 30 min. The amount of the induced hsp72 was measured after a further 6 hours incubation at 37° C.

[2] = test system: Hsp72; experiment: Heat stress induced hsp72 expression in rat spleen explant; format: cell-based; details: 10^−5 M, 15 min. before 43° C. 30 min.
Experimental: These experiments were performed on rat spleen and testicular tissue explants applying heat stress after treatment with the experimental compounds. Experiments on spleen suspension were carried out as follows.
Spleens of CFY rats weighing 200 g were removed aseptically, and were homogenized in 10% fetal bovine serum containing MEM culture medium. The concentration of the cell suspension was adjusted to 50-100 mg/5 ml.
Five ml cell suspension was given into each of the culture dishes of 6 cm of diameter and the explants were incubated for one hour in a 5% CO2 containing humidified air at 37° C. then cultures were treated with the 10^−5 M concentration of the test compounds. After further 15 min. incubation at 37° C. the cultures were exposed to heat shock at 43° C. for 30 min. in an incubator. The amount of the induced hsp72 was measured after a further 6 hours incubation at 37° C.

[3] = test system: Male Sprague-Dawley rats; experiment: Protection against cardiac ischaemia: survival after 5 minutes coronary occlusion and reperfusion; format: in vivo, rat; details: i.v. 1 mg/kgbw, 5 min. before the occlusion; non-treated control 10
Experimental: Male Sprague-Dawley rats (380-450 g b.w.) were anaesthetized with sodiumpentobarbital (Nembutal 60 mg/kg body weight, i.p.) and artificially ventilated with room air (2 ml/100 g; 54 stroke/minutes) via tracheotomy. The right carotid artery was catheterized and connected to a pressure transducer (BPR-01, Stoelting) for the measurement of systemic arterial blood pressure (BP) by means of a preamplifier (Hg-02, Experimetria). Hydroxylamine derivatives disclosed in Example 5 were administered via the venous cannule to jugular vein (i.v.) and orally (p.o.). Heart rate (HR) was measured by a cardiotachometer (HR-01, Experimetria). The electrocardiogram (ECG standard lead II) was recorded on a devices recorder (MR-12, Medicor) by means of subcutaneous steel needles electrodes. The chest was opened by a left thoracotomy and the heart was exteriorized by a gentle pressure on the right side of the rib cage. A 4-0 silk suture was quickly placed under the main left coronary artery as described by Selye et al. (1960). The heart was carefully replaced in the chest and the animal left to recover. Rectal temperature was monitored and kept constant at 37 C. The experimental protocol was initiated with a 15 minute stabilization period during which the observation of a sustained blood pressure less than 70 mmHg and or the occurrence of anhythmia led to exclusion. Myocardial ischemia was induced with coronary occlusion for 5 minutes and reperfusion allowed for 10 minutes.
During the entire experiment BP, HR and ECG were continuously registered on a multiscriptor (R61-6CH, Medicor). Hydroxylamine derivatives, the tautomeric forms of which are represented by structures (I) and (II), were administered 5 to 60 minutes before the occlusion after i.v. and p.o. treatment, respectively. […]
The mean duration of ventricular tachycardia (VT) and/or ventricular fibrillation (VF) during the first 3 minutes of reperfusion was analyzed by one-way analysis of variance. The incidence of VF was analyzed using a chi-square test. […] The haemodynamic variables were analyzed using Student's “t”-test. The critical level of significance was set at p<0.05. All results were expressed as a means±S.E.M. Drugs were administered i.v. in a dose of 1 mg/kgbw 5 min. before the occlusion.
The hydroxylamine derivatives that are found to be particularly advantageous for protecting an animal against ischemic/reperfusion injury are listed below. Survival (%) indicates the percent of animals survived the effects of 5 minutes coronary occlusion.

[4] = test system: Rats with genetic hypertension; experiment: Morphological examination of the thoracic aorta of rats with genetic hypertension; format: in vivo, rat; details: daily oral treatment (20 mg/kg 8 days or 5 mg/kg 20 days)
Experimental: Rats with genetic hypertension were divided into four groups of four. The groups were treated daily, orally, the first group with physiological saline, the second group with N-[2-hydroxy-3-(1-piperidinyl)]-propoxy-3-pyridine-carboximidoyl-chloride maleate (20 mg/kg) for 8 days, the third group with N-[2-hydroxy-3-(1-piperidinyl)-propoxy]-benzimidoyl-chloride monohydrochloride (5 mg/kg) for 20 days and the fourth group with N-[2-hydroxy-3-(1-piperidinyl)-propoxy]-2-thiophenecarboximidoyl-chloride monohydrochloride (5 mg/kg) for 20 days. Animals were sacrificed, aortas were isolated, snap frozen in liquid nitrogen and were stored at −70° C. till they were used.
The examination was performed according to published methods (Br. J. of Pharmacol., 1995; 115, […]). A 1 mm^2 area of the thoracic aorta was excised and fixed in 2.5% glutaral-dehyde at room temperature. Post fixation was performed in 1% osmium-tetroxide for one hour. The tissue was dehydrated in ethanol and was embedded in Durcupan ACM. Pictures were taken by a Hitachi 7100 electronmicroscope and were evaluated qualitatively.

[5] = test system: HSP72; experiment: Heat stress induced HSP72 production in 3T3 cells; format: cell-based, mouse; details: 10^−5 M
Experimental: (§1) From the applied cells the 3T3 and L-929 mouse fibroblasts were cultured in MEM medium and grew in monolayer, the U-937 human leukemia cells were maintained in RPMI-1640 medium, in suspension culture, while the HeLa human epithelial cells were cultured in DMEM medium and in monolayer form. Cell cultures were maintained as described in example 6.2 (a) with the difference that cells were cultured in the above mentioned culture mediums.
(§2) Experiments were carried out applying stress before and after the drug treatment. Stress was provoked by heat, by chemical agent, HgCl2 treatment. The test compounds were applied in the treatments at the 10^−5 M concentration.
The experiments on 3T3 cell applying heat stress were performed as described in the 6.2. (c) point of example 6, with the difference that stress was induced by a 30 min. exposure at 43° C. temperature and treatment with the test compounds was performed 15 min. before or 100 min. after the heat stress.
Immunodetection was carried out using the HSP72 specific SPA 810 (StressGene) primary and the horse-radish peroxidase conjugated A9044 (Sigma) secondary antibodies. Densitometric evaluation was performed by a LKB Ultrascan XL densitometer.

[6] = test system: hsp72; experiment: HgCl2 stress induced hsp72 level in HeLa cells; format: cell-based, human; details: 10^−5 M, 0.5 μg/ml HgCl2, 6 hours
Experimental: as §1, §2
These experiments were performed on HeLa, human epithelial and U-937, human leukemia cells using HgCl2 to induce stress response. Drug treatment was carried out before cells were exposed to the stress. Test cultures were prepared and treatments were performed as in the experiments with the 3T3 cells. After the drug treatment cells were incubated at 37° C. for 15 min. than all the cultures except two (non stressed control) were exposed to 0.5 μg/ml concentration of HgCl2 and the incubation was followed. The induced amount of hsp72 was measured 6 hours after the exposure to stress.

[7] = test system: GRP-94; experiment: Level of GRP-94 in STZ diabetic rat liver (Western blot); format: in vivo
[8] = treatment 15 min. before 30 min. 43° C. heat stress
[9] = treatment 100 min. after 30 min. 43° C. heat stress

In the case of `CCCCCCCCCCCCCCCC(=O)OC(CON=C(Cl)c1cccnc1)CN1CCCCC1.Cl.Cl` (stereo not drawn) [Example 23, N-[2-palmitoyloxy-3-(1-piperidinyl)propoxy]-3-pyridinecarboximidoyl chloride dihydrochloride], the “Level of hsp72 relative to the stress exposed control” value [1] is reported as “+ + +” and the melting point is reported as 69 to 73.5 °C.
For `CCCCCCCNC(=O)NOCC(O)CN1CCCCC1` (stereo not drawn) [Example 55, N-[2-hydroxy-3-(1-piperidinyl)propoxy]-N′-heptyl-urea], the “Level of hsp72 relative to the stress exposed control” value [2] was “+++ (>100%)” and the “Level of hsp72 relative to the stress exposed control” value [1] was “+ +”.
For `CC(C)(C)NCC(O)CONC(=O)c1cccc(C(F)(F)F)c1` (stereo not drawn) [Example 65], the “Survival (%)” value [3] was 78%, the “Level of hsp72 relative to the stress exposed control” value [2] was “+ (21-50%)” and the “Level of hsp72 relative to the stress exposed control” value [1] was 0 (0 indicates that the treatment altered by ±20% the stress induced hsp72 level in the cells).
With `Cl.OC(CON=C(Cl)c1cccs1)CN1CCCCC1` (stereo not drawn) [Example 1, N-[2-hydroxy-3-(1-piperidinyl)propoxyl]-2-thiophenecarboximidoyl chloride monohydrochloride] the “Survival (%)” value [3] was 100% and the “regeneration of the cells of aorta” value [4] was “facilitated the regeneration of the cells of aorta”.
For `Cl.OC(CON=C(Cl)c1nccc2ccccc12)CN1CCCCC1` (stereo not drawn), the melting point was 168 to 172 °C.
`CN1CCN(CCCONC(=N)c2cccnc2)CC1.Cl` showed a melting point of 127 to 130 °C.
With `Cl.OC(CONC(=NC1CCCCC1)c1cccnc1)CN1CCCCC1` (stereo not drawn) the melting point was 130 to 134 °C.
`Cl.OC(CNC1CCCCC1)CON=C(Cl)c1cccc(C(F)(F)F)c1` (stereo not drawn) gave a melting point of 147 to 149.5 °C.
For `Cl.O=[N+]([O-])c1cccc(C(Cl)=NOCCCN2CCCCC2)c1` [Example 79, O-(3-piperidinopropyl)-3-nitro-benzhydroximyl chloride hydrochloride], the “Survival (%)” value [3] was 100%, the “HSP72 level relative to the stress exposed control” value [5, 8] was “+++ (>100%)” and the “HSP72 level relative to the stress exposed control” value [5, 9] was “+ (21-50%)”. The “increase of the stress induced hsp72 level” value [6] was “more than 50%” and the “Level of hsp72 relative to the stress exposed control” value [1] was “+ +”.
In the case of `Cl.N=C(NOCCCN1CCCCC1)c1cccc(C(F)(F)F)c1`, the melting point is reported as 116 to 119 °C.
In the case of `Cl.OC(CON=C(Cl)c1ccccc1)CN1CCCCC1` (stereo not drawn) [N-[2-hydroxy-3-(1-piperidinyl)-propoxy]-benzimidoyl-chloride monohydrochloride], the “Survival (%)” value [3] is reported as 100%, the “HSP72 level relative to the stress exposed control” value [5, 8] is reported as “+ (21-50%)” and the “increase of the stress induced hsp72 level” value [6] is reported as “more than 20%”. For the same compound, the “Level of hsp72 relative to the stress exposed control” value [1] was “+ + +” and the “regeneration of the cells of aorta” value [4] was “facilitated the regeneration of the cells of aorta”.
For “insulin: Insulin (Protophane HM inj.) [reference compound]”, the “levels of GRP-94 compared to the control state” value ([7]; insulin alone, 1 week and 2-weeks samples) was “almost doubled” and the “relative amount of GRP-94” value ([7]; rats diabetic for 4 weeks, insulinized, not treated with the compound) was “recovery of GRP-94 to the control level”.
For `c1cncc(C2=NOCC(CN3CCCCC3)N2)c1` (stereo not drawn) [Example 64, 5,6-Dihydro-5-(1-piperidinyl)methyl-3-(3-pyridyl)-4H-1,2,4-oxadiazine], the “Survival (%)” value [3] was 100%, the “HSP72 level relative to the stress exposed control” value [5, 8] was “+++ (>100%)” and the “HSP72 level relative to the stress exposed control” value [5, 9] was 0 (0 indicates that the treatment altered by ±20% the stress induced hsp72 level in the cells). For the same compound, the “Level of hsp72 relative to the stress exposed control” value [2] was 0 (0 indicates that the treatment altered by ±20% the stress induced hsp72 level in the cells) and the “Level of hsp72 relative to the stress exposed control” value [1] was “+ +”.
In the case of `Cl.Cl.N=C(NOCC(O)CN1CCCCC1)c1cccs1` (stereo not drawn), the melting point is reported as 157 to 170 °C.
Compound `Cl.Cl.N=C(NOCC(O)CN1CCCCC1)c1ccc([N+](=O)[O-])cc1` (stereo not drawn) has a melting point of 184 to 189 °C.
With `CCN(CC)CC(O)CON=C(Cl)c1cccc(C(F)(F)F)c1.Cl` (stereo not drawn) [Example 12, N-[3-(diethylamino)-2-hydroxypropoxy]-3-trifluoromethyl-benzenecarboximidoyl chloride monohydrochloride] the “Level of hsp72 relative to the stress exposed control” value [1] was “+ (21-50%)” and the melting point was 121 to 128 °C.
In the case of `O=C(NOCC(O)CN1CCCCC1)Nc1cccc(Cl)c1` (stereo not drawn) [Example 59, N-(3-chlorophenyl)-N′-[2-hydroxy-3-(1-piperidinyl)propoxy]-urea], the “HSP72 level relative to the stress exposed control” value [5, 8] is reported as “+++ (>100%)” and the “Level of hsp72 relative to the stress exposed control” value [2] is reported as “+++ (>100%)”.
In the case of `O=C(O)/C=C\C(=O)O.O=C(OC(CON=C(Cl)c1cccnc1)CN1CCCCC1)c1ccccc1` (stereo not drawn) [Example 21, N-[2-benzoyloxy-3-(1-piperidinyl)propoxy]-3-pyridinecarboximidoyl chloride (Z)-2-butenedioate (1:1)], the “Level of hsp72 relative to the stress exposed control” value [1] is reported as “+ +” and the melting point is reported as 134 to 136 °C.
